These results are taken from article PMC5218480 (PLoS ONE, 2017).

The test deals with MV-4-11 cells. Nature of the test: Gene expression microarray analysis (Affymetrix PrimeView) and GSEA. It counts as cell-based, human. Also noted: RFU PODN (11730768_x_at) / Fold change /veh PODN (11730768_x_at) / RFU LINC00158 (11744669_a_at) / Fold change /veh LINC00158 (11744669_a_at) / RFU DUSP10 (11751237_a_at) / Fold change /veh DUSP10 (11751237_a_at) / RFU ID3 (11757404_x_at) / Fold change /veh ID3 (11757404_x_at) / RFU PLEKHG5 (11737974_s_at) / Fold change /veh PLEKHG5 (11737974_s_at) / RFU LRRC4B (11730491_at) / Fold change /veh LRRC4B (11730491_at) / RFU GIMAP4 (11747438_a_at) / Fold change /veh GIMAP4 (11747438_a_at) / RFU KRT8 (11758183_x_at) / Fold change /veh KRT8 (11758183_x_at) / RFU CNN1 (11734310_a_at) / Fold change /veh CNN1 (11734310_a_at) / RFU VPS37D (11726825_at) / Fold change /veh VPS37D (11726825_at) / RFU C10orf10 (11716522_x_at) / Fold change /veh C10orf10 (11716522_x_at) / RFU KIR2DL2 /// KIR2DL4 /// KIR2DL5A /// KIR2DL5B /// KIR2DS1 /// KIR2DS2 /// KIR2DS3 /// KIR2DS4 /// KIR3DL3 /// KIR3DL3 /// KIR3DS1 (11738374_at) / Fold change /veh KIR2DL2 /// KIR2DL4 /// KIR2DL5A /// KIR2DL5B /// KIR2DS1 /// KIR2DS2 /// KIR2DS3 /// KIR2DS4 /// KIR3DL3 /// KIR3DL3 /// KIR3DS1 (11738374_at) / RFU C1QL1 (11718748_at) / Fold change /veh C1QL1 (11718748_at) / RFU TMPRSS4 (11747572_a_at) / Fold change /veh TMPRSS4 (11747572_a_at) / RFU HAMP (11756126_x_at) / Fold change /veh HAMP (11756126_x_at) / RFU RNFT2 (11725882_a_at) / Fold change /veh RNFT2 (11725882_a_at) / RFU NR4A2 (11747474_a_at) / Fold change /veh NR4A2 (11747474_a_at) / RFU ABCC12 (11746883_a_at) / Fold change /veh ABCC12 (11746883_a_at) / RFU TMEM136 (11760407_x_at) / Fold change /veh TMEM136 (11760407_x_at) / RFU CLDN22 /// WWC2 (11732394_at) / Fold change /veh CLDN22 /// WWC2 (11732394_at) / RFU HLA-DPB1 (11760878_x_at) / Fold change /veh HLA-DPB1 (11760878_x_at) / RFU SPINT1 (11716480_a_at) / Fold change /veh SPINT1 (11716480_a_at) / RFU GAP43 (11754022_s_at) / Fold change /veh GAP43 (11754022_s_at) / RFU A4GNT (11735810_at) / Fold change /veh A4GNT (11735810_at) / RFU PRB3 (11715151_x_at) / Fold change /veh PRB3 (11715151_x_at) / RFU TUBB4B (11761932_at) / Fold change /veh TUBB4B (11761932_at) / RFU CAPN14 (11732068_a_at) / Fold change /veh CAPN14 (11732068_a_at) / RFU TMCC2 (11721928_a_at) / Fold change /veh TMCC2 (11721928_a_at) / RFU IRGQ (11745062_a_at) / Fold change /veh IRGQ (11745062_a_at) / RFU FAM174B (11720279_a_at) / Fold change /veh FAM174B (11720279_a_at) / RFU TMPRSS4 (11748680_a_at) / Fold change /veh TMPRSS4 (11748680_a_at) / RFU FAM212B (11763350_a_at) / Fold change /veh FAM212B (11763350_a_at) / RFU PLEKHG5 (11743358_a_at) / Fold change /veh PLEKHG5 (11743358_a_at) / RFU ZSCAN30 (11745921_a_at) / Fold change /veh ZSCAN30 (11745921_a_at) / RFU CMKLR1 (11741424_a_at) / Fold change /veh CMKLR1 (11741424_a_at) / RFU LOC101060620 /// MAPK8IP1 (11723275_at) / Fold change /veh LOC101060620 /// MAPK8IP1 (11723275_at) / RFU SPTSSB (11747773_x_at) / Fold change /veh SPTSSB (11747773_x_at) / RFU PRSS12 (11739890_at) / Fold change /veh PRSS12 (11739890_at) / RFU BIN1 (11741810_x_at) / Fold change /veh BIN1 (11741810_x_at) / RFU WNT11 (11732464_a_at) / Fold change /veh WNT11 (11732464_a_at) / RFU C10orf10 (11716521_a_at) / Fold change /veh C10orf10 (11716521_a_at) / RFU C5orf56 (11738089_at) / Fold change /veh C5orf56 (11738089_at) / RFU CYB561 (11721691_x_at) / Fold change /veh CYB561 (11721691_x_at) / RFU ANKRD19P (11752326_a_at) / Fold change /veh ANKRD19P (11752326_a_at) / RFU OR2T12 /// OR2T33 /// OR2T8 (11738714_s_at) / Fold change /veh OR2T12 /// OR2T33 /// OR2T8 (11738714_s_at) / RFU VCAN (11748164_a_at) / Fold change /veh VCAN (11748164_a_at) / RFU JSRP1 (11732532_at) / Fold change /veh JSRP1 (11732532_at) / RFU KRTAP10-11 (11738290_x_at) / Fold change /veh KRTAP10-11 (11738290_x_at) / RFU MYO3A (11730013_a_at) / Fold change /veh MYO3A (11730013_a_at) / RFU EBF3 (11725865_a_at) / Fold change /veh EBF3 (11725865_a_at) / RFU CAMK2N1 (11719241_x_at) / Fold change /veh CAMK2N1 (11719241_x_at) / RFU C5orf56 (11738088_a_at) / Fold change /veh C5orf56 (11738088_a_at) / RFU OLFML3 (11715873_a_at) / Fold change /veh OLFML3 (11715873_a_at) / RFU LOC100653217 /// NTM (11731650_a_at) / Fold change /veh LOC100653217 /// NTM (11731650_a_at) / RFU MAPK11 (11762145_a_at) / Fold change /veh MAPK11 (11762145_a_at) / RFU FIZ1 (11724087_x_at) / Fold change /veh FIZ1 (11724087_x_at) / RFU OASL (11726364_x_at) / Fold change /veh OASL (11726364_x_at) / RFU SOX15 (11748057_x_at) / Fold change /veh SOX15 (11748057_x_at) / RFU CD79A (11719716_a_at) / Fold change /veh CD79A (11719716_a_at) / RFU HIST1H1D (11736915_at) / Fold change /veh HIST1H1D (11736915_at) / RFU CASKIN2 (11723855_a_at) / Fold change /veh CASKIN2 (11723855_a_at) / RFU LOC730098 (11760151_x_at) / Fold change /veh LOC730098 (11760151_x_at) / RFU OR4N2 (11742367_at) / Fold change /veh OR4N2 (11742367_at) / RFU PRRT2 (11749266_a_at) / Fold change /veh PRRT2 (11749266_a_at) / RFU SNX32 (11753110_a_at) / Fold change /veh SNX32 (11753110_a_at) / RFU CDHR5 (11726645_a_at) / Fold change /veh CDHR5 (11726645_a_at) / RFU RCAN1 (11760418_a_at) / Fold change /veh RCAN1 (11760418_a_at) / RFU FAM167A (11723789_a_at) / Fold change /veh FAM167A (11723789_a_at) / RFU FAM26E (11764081_at) / Fold change /veh FAM26E (11764081_at) / RFU ISYNA1 (11749810_s_at) / Fold change /veh ISYNA1 (11749810_s_at) / RFU ACY1 (11761880_at) / Fold change /veh ACY1 (11761880_at) / RFU 11764098_at / Fold change /veh 11764098_at / RFU SAMD14 (11745864_x_at) / Fold change /veh SAMD14 (11745864_x_at) / RFU NPB (11741838_a_at) / Fold change /veh NPB (11741838_a_at) / RFU TMPRSS6 (11731388_a_at) / Fold change /veh TMPRSS6 (11731388_a_at) / RFU KRTAP10-2 (11738614_at) / Fold change /veh KRTAP10-2 (11738614_at) / RFU ARHGAP8 /// PRR5-ARHGAP8 (11727945_x_at) / Fold change /veh ARHGAP8 /// PRR5-ARHGAP8 (11727945_x_at) / RFU KRTAP5-7 /// NADSYN1 (11734609_at) / Fold change /veh KRTAP5-7 /// NADSYN1 (11734609_at) / RFU RASL12 (11751679_a_at) / Fold change /veh RASL12 (11751679_a_at) / RFU CDKN2B (11736163_a_at) / Fold change /veh CDKN2B (11736163_a_at) / RFU PRF1 (11729649_at) / Fold change /veh PRF1 (11729649_at) / RFU, ZNF638 /// ZNF638-IT1 / Fold change vs veh, ZNF638 /// ZNF638-IT1 / RFU, PANK3 / Fold change vs veh, PANK3 / RFU, SH3YL1 / Fold change vs veh, SH3YL1 / RFU, ZEB2 / Fold change vs veh, ZEB2 / RFU, NRIP1 / Fold change vs veh, NRIP1 / RFU, PTTG1IP / Fold change vs veh, PTTG1IP / RFU, CAPN2 / Fold change vs veh, CAPN2 / RFU, MED14 / Fold change vs veh, MED14 / RFU, SNORA58 / Fold change vs veh, SNORA58 / RFU, C1orf63 / Fold change vs veh, C1orf63 / RFU, LRRFIP1 / Fold change vs veh, LRRFIP1 / RFU, NDUFAF7 / Fold change vs veh, NDUFAF7 / RFU, SLC12A2 / Fold change vs veh, SLC12A2 / RFU, IBTK / Fold change vs veh, IBTK / RFU, ESF1 / Fold change vs veh, ESF1 / Fold change vs veh, TMEM50B / RFU, TAOK1 / Fold change vs veh, TAOK1 / RFU, ACBD3 / Fold change vs veh, ACBD3 / RFU, TMA16 / Fold change vs veh, TMA16 / RFU, RWDD3 / Fold change vs veh, RWDD3 / RFU, BCAT1 / Fold change vs veh, BCAT1 / RFU, EDEM3 / Fold change vs veh, EDEM3 / RFU, TMEM33 / Fold change vs veh, TMEM33 / RFU, WDR75 / Fold change vs veh, WDR75 / RFU, AHCTF1 / Fold change vs veh, AHCTF1 / RFU, TFRC / Fold change vs veh, TFRC / RFU, ZDHHC17 / Fold change vs veh, ZDHHC17 / RFU, NOM1 / Fold change vs veh, NOM1 / RFU, ARL8B / Fold change vs veh, ARL8B / RFU, ZBTB11 / Fold change vs veh, ZBTB11 / RFU, TAMM41 / Fold change vs veh, TAMM41 / RFU, KIAA1704 /// LOC100996395 / Fold change vs veh, KIAA1704 /// LOC100996395 / RFU, ING1 / Fold change vs veh, ING1 / RFU, TRMT61B / Fold change vs veh, TRMT61B / RFU, FUBP3 / Fold change vs veh, FUBP3 / RFU, TP53 / Fold change vs veh, TP53 / RFU, TNKS2 / Fold change vs veh, TNKS2 / RFU, ZFP14 / Fold change vs veh, ZFP14 / RFU, ACTR2 / Fold change vs veh, ACTR2 / RFU, PPP3R1 / Fold change vs veh, PPP3R1 / RFU, PIK3R1 / Fold change vs veh, PIK3R1 / RFU, HNRNPA1 / Fold change vs veh, HNRNPA1 / RFU, RNF170 / Fold change vs veh, RNF170 / RFU, ZNF28 / Fold change vs veh, ZNF28 / RFU, RNGTT / Fold change vs veh, RNGTT / RFU, OGT / Fold change vs veh, OGT / RFU, BRD1 / Fold change vs veh, BRD1 / RFU, MARS / Fold change vs veh, MARS / RFU, ZNF655 / Fold change vs veh, ZNF655 / RFU, FAHD1 / Fold change vs veh, FAHD1 / RFU, BDP1 / Fold change vs veh, BDP1 / RFU, LRRCC1 / Fold change vs veh, LRRCC1 / RFU, ARID1A / Fold change vs veh, ARID1A / RFU, ZNF146 / Fold change vs veh, ZNF146 / RFU, ZNF330 / Fold change vs veh, ZNF330 / RFU, GPN3 / Fold change vs veh, GPN3 / RFU, C9orf123 / Fold change vs veh, C9orf123 / RFU, N4BP2L2 / Fold change vs veh, N4BP2L2 / RFU, ARFIP1 / Fold change vs veh, ARFIP1 / RFU, FAM179B / Fold change vs veh, FAM179B / RFU, BCL10 / Fold change vs veh, BCL10 / RFU, UHRF1BP1L / Fold change vs veh, UHRF1BP1L / RFU, BET1 / Fold change vs veh, BET1 / RFU, CNOT2 / Fold change vs veh, CNOT2 / RFU, ZNF268 / Fold change vs veh, ZNF268 / Fold change vs veh, ZNF507 / RFU, DGCR2 / Fold change vs veh, DGCR2 / RFU, WDSUB1 / Fold change vs veh, WDSUB1 / Fold change vs veh, HSP90B1 /// MIR3652 / RFU, ADSS / Fold change vs veh, ADSS / RFU, GK / Fold change vs veh, GK / RFU, ZNF148 / Fold change vs veh, ZNF148 / RFU, TAF9 / Fold change vs veh, TAF9 / RFU, SLC1A5 / Fold change vs veh, SLC1A5 / RFU, SLMO2 / Fold change vs veh, SLMO2 / RFU, ABCC4 / Fold change vs veh, ABCC4 / RFU, LOC101060439 /// RAP1B / Fold change vs veh, LOC101060439 /// RAP1B / RFU, RFX7 / Fold change vs veh, RFX7 / RFU, GTPBP10 / Fold change vs veh, GTPBP10 / RFU, CNEP1R1 / Fold change vs veh, CNEP1R1 / RFU, BIVM-ERCC5 /// ERCC5 / Fold change vs veh, BIVM-ERCC5 /// ERCC5 / RFU, ILF3 / Fold change vs veh, ILF3 / RFU 11762660_at / Fold change /veh 11762660_at / RFU VCAN (11757783_s_at) / Fold change /veh VCAN (11757783_s_at) / RFU DDX43 (11728927_at) / Fold change /veh DDX43 (11728927_at) / RFU KRT8 (11758188_x_at) / Fold change /veh KRT8 (11758188_x_at) / RFU NKD1 (11759106_at) / Fold change /veh NKD1 (11759106_at) / RFU SRD5A1 (11742802_a_at) / Fold change /veh SRD5A1 (11742802_a_at) / RFU TPSAB1 /// TPSB2 (11721975_s_at) / Fold change /veh TPSAB1 /// TPSB2 (11721975_s_at) / RFU GSTM3 (11746129_a_at) / Fold change /veh GSTM3 (11746129_a_at) / RFU IL23R (11737362_x_at) / Fold change /veh IL23R (11737362_x_at) / RFU TMEM51 (11727254_a_at) / Fold change /veh TMEM51 (11727254_a_at) / RFU PIWIL2 (11732686_x_at) / Fold change /veh PIWIL2 (11732686_x_at) / RFU ORM1 (11744905_x_at) / Fold change /veh ORM1 (11744905_x_at) / RFU CCDC152 (11743942_at) / Fold change /veh CCDC152 (11743942_at) / RFU ECM1 (11717891_a_at) / Fold change /veh ECM1 (11717891_a_at) / RFU IL23R (11748794_a_at) / Fold change /veh IL23R (11748794_a_at) / RFU TNFAIP8L3 (11732012_x_at) / Fold change /veh TNFAIP8L3 (11732012_x_at) / RFU MBOAT4 (11741988_at) / Fold change /veh MBOAT4 (11741988_at) / RFU 11764193_at / Fold change /veh 11764193_at / RFU TMEM53 (11763286_at) / Fold change /veh TMEM53 (11763286_at) / RFU MAGEB2 (11727129_at) / Fold change /veh MAGEB2 (11727129_at) / RFU TMEM200A (11744735_a_at) / Fold change /veh TMEM200A (11744735_a_at) / RFU CCDC152 (11751479_a_at) / Fold change /veh CCDC152 (11751479_a_at) / RFU FAM211A (11726209_a_at) / Fold change /veh FAM211A (11726209_a_at) / RFU RGS16 (11746705_a_at) / Fold change /veh RGS16 (11746705_a_at) / RFU VCAN (11755009_s_at) / Fold change /veh VCAN (11755009_s_at) / RFU RHOB (11743442_s_at) / Fold change /veh RHOB (11743442_s_at) / RFU RGS16 (11720943_a_at) / Fold change /veh RGS16 (11720943_a_at) / RFU RGS16 (11720944_at) / Fold change /veh RGS16 (11720944_at) / RFU, VPS4B / Fold change vs veh, VPS4B / RFU, CREB1 / Fold change vs veh, CREB1 / RFU, DNAJC13 / Fold change vs veh, DNAJC13 / RFU, GNAQ / Fold change vs veh, GNAQ / RFU, CDK5R1 / Fold change vs veh, CDK5R1 / RFU, ZRANB3 / Fold change vs veh, ZRANB3 / RFU, CUL4A / Fold change vs veh, CUL4A / RFU, CCNY / Fold change vs veh, CCNY / RFU, UFL1 / Fold change vs veh, UFL1 / RFU, COG3 / Fold change vs veh, COG3 / RFU, DIAPH2 / Fold change vs veh, DIAPH2 / RFU, SKA2 / Fold change vs veh, SKA2 / RFU, AFF3 / Fold change vs veh, AFF3 / RFU, LMF1 / Fold change vs veh, LMF1 / RFU, IPO11 / Fold change vs veh, IPO11 / RFU, DFFB / Fold change vs veh, DFFB / RFU, FOXP1 / Fold change vs veh, FOXP1 / RFU, CARD8 / Fold change vs veh, CARD8 / RFU, STRN3 / Fold change vs veh, STRN3 / RFU, ADK / Fold change vs veh, ADK / RFU, RASSF2 / Fold change vs veh, RASSF2 / RFU, WIPF1 / Fold change vs veh, WIPF1 / RFU, LARP1B / Fold change vs veh, LARP1B / RFU, RASA1 / Fold change vs veh, RASA1 / RFU, RB1 / Fold change vs veh, RB1 / RFU, PPFIA1 / Fold change vs veh, PPFIA1 / RFU, MAT2A / Fold change vs veh, MAT2A / RFU, CCT5 / Fold change vs veh, CCT5 / RFU, WDR92 / Fold change vs veh, WDR92 / RFU, CUX1 / Fold change vs veh, CUX1 / RFU, TTC7A / Fold change vs veh, TTC7A / RFU, TMEM135 / Fold change vs veh, TMEM135 / RFU, DEPTOR / Fold change vs veh, DEPTOR / RFU, CPM / Fold change vs veh, CPM / RFU, DNAJB6 / Fold change vs veh, DNAJB6 / RFU, CACNA2D3 / Fold change vs veh, CACNA2D3 / RFU, DTX4 / Fold change vs veh, DTX4 / RFU, TFCP2 / Fold change vs veh, TFCP2 / RFU, GMCL1 /// GMCL1P1 / Fold change vs veh, GMCL1 /// GMCL1P1 / RFU, AEBP2 / Fold change vs veh, AEBP2 / RFU, SNHG1 /// SNORD22 /// SNORD25 /// SNORD26 /// SNORD27 /// SNORD28 /// SNORD29 /// SNORD31 / Fold change vs veh, SNHG1 /// SNORD22 /// SNORD25 /// SNORD26 /// SNORD27 /// SNORD28 /// SNORD29 /// SNORD31 / Fold change (Aza/veh), C12orf56 (ProbeSet 11735607_a_at) / Fold change (ACY-1035/veh), C12orf56 (ProbeSet 11735607_a_at) / Fold change (Aza/veh), FGFR1OP (ProbeSet 11751329_s_at) / Fold change (ACY-1035/veh), FGFR1OP (ProbeSet 11751329_s_at) / Fold change (Aza/veh), VPS36 (ProbeSet 11739960_a_at) / Fold change (ACY-1035/veh), VPS36 (ProbeSet 11739960_a_at) / RFU SYPL1 (11715823_x_at) / Fold change /veh SYPL1 (11715823_x_at) / RFU IGFBP7 (11715501_s_at) / Fold change /veh IGFBP7 (11715501_s_at) / RFU REEP3 (11722064_at) / Fold change /veh REEP3 (11722064_at) / RFU IGLL1 (11728026_x_at) / Fold change /veh IGLL1 (11728026_x_at): dose or concentration left out as unconfirmed. The following applies: MV-4-11 cells, 48 hours.

SMILES strings stand for the structures.

Take `Nc1ncn([C@@H]2O[C@H](CO)[C@@H](O)[C@H]2O)c(=O)n1` [azacitidine]: the “RFU RGS16 (11746705_a_at)” value is 77.87 RFU.
